Data published in US11633444B2, “Sporoderm-removed Ganoderma lucidum spore powder, granule and preparation method thereof” (ZHEJIANG SHOUXIANGU PHARMACEUTICAL COMPANY, LTD, priority 2017, dated 2023).
Where a name gives a salt, the structure may show the parent alone.

Columns and labels:
Format in all cases: in vivo
[1] = tested on: human lymphatic cancer (Ramos) transplanted tumor; test: Zebrafish human lymphatic cancer (Ramos) transplanted tumor model; settings: 2 days at 35° C.; for Pixel of Sum of Fluorescence Intensities (mean ± SE): 5 μM
Text: Human lymphatic cancer (Ramos) cells were labeled with a red fluorescent dye (CM-Dil), and transplanted into zebrafish yolk sacs by microinjection, with about 200 cells being transplanted per zebrafish, so as to establish a zebrafish human lymphatic cancer transplanted tumor model.
(§1) Human lymphatic cancer (Ramos) cells were labeled with CM-Dil, and transplanted into 2 dpf wild type AB strain zebrafish yolk sacs by microinjection, with about 200 cells being transplanted per zebrafish, so as to establish a zebrafish human lymphatic cancer transplanted model; and the zebrafishes injected with the human lymphatic cancer cells were fed at 35° C. until 3 dpf.
Zebrafishes with better consistence in transplanted tumor cells were picked out under a microscope, randomly assigned to a 6-well plate, and were given in a water-dissolving administration manner respectively with the samples at concentrations respectively of 28, 83 and 250 μg/mL and the positive control drug vincristine at a concentration of 5 μM; and meanwhile a model control group was set, where there were 30 zebrafishes per well (concentration group), and the volume of each well was 5 mL. The zebrafishes in each experiment group were continually cultured at 35° C., and after 2 days, 10 zebrafishes were randomly selected from each experiment group to observe under a fluorescence microscope, and photographs of the 10 zebrafishes were taken and saved; and the photographs were analyzed using Nikon NIS-Elements D 3.10 Advanced image processing software to calculate the fluorescence intensities of cancer cells. The inhibitory effect of the sample on the zebrafish lymphatic cancer (Ramos) transplanted tumor was evaluated with the fluorescence intensities, and the tumor inhibition effect was calculated using the following equation.
A concentration-effect curve was drawn according to a growth inhibition effect on the transplanted tumor; statistical analysis was performed by variance analysis and Dunnett's T-test, where p<0.05 was considered as a significant difference; such that a representative experimental map was provided.

[2] = tested on: human gastric cancer (SGC-7901) transplanted tumor; test: Zebrafish human gastric cancer (SGC-7901) transplanted tumor model; settings: SGC-7901, 50 μM, 2 days at 35° C., n = 10
Text: Human gastric cancer (SGC-7901) cells were labeled with a red fluorescent dye (CM-Dil), and transplanted into zebrafish yolk sacs by microinjection, with about 200 cells being transplanted per zebrafish, so as to establish a zebrafish human gastric cancer transplanted tumor model.
as §1, with “Human gastric” for “Human lymphatic”, “cancer (SGC-7901)” for “cancer (Ramos)”, “human gastric” for “human lymphatic”, “cancer (SGC-7901)” for “cancer”, “the SGC-7901” for “the human lymphatic cancer”
(§2) Zebrafishes with better consistence in transplanted tumor cells were picked out under a microscope, randomly assigned to a 6-well plate, and were given in a water-dissolving administration manner respectively with the samples at concentrations respectively of 28, 83 and 250 μg/mL and the positive control drug cis-platinum at a concentration of 50 μM; and meanwhile a model control group was set, where there were 30 zebrafishes per well (concentration group), and the volume of each well was 5 mL. The zebrafishes in each experiment (concentration) group were continually cultured at 35° C., and after 2 days, 10 zebrafishes were randomly selected from each experiment (concentration) group to observe under a fluorescence microscope, and photographs of the 10 zebrafishes were taken and saved; and the photographs were analyzed using Nikon NIS-Elements D 3.10 Advanced image processing software to calculate the fluorescence intensities of cancer cells. The inhibitory effects of samples on the zebrafish gastric cancer (SGC-7901) transplanted tumor were respectively evaluated with the fluorescence intensities, and the tumor inhibition effect was calculated using the following equation. […]

[3] = tested on: human lung adenocarcinoma (A549) transplanted tumor; test: Zebrafish human lung adenocarcinoma (A549) transplanted tumor model; settings: A549, 50 μM, 2 days at 35° C., n = 10
Text: Human lung adenocarcinoma (A549) cells were labeled with a red fluorescent dye (CM-Dil), and transplanted into zebrafish yolk sacs by microinjection, with about 200 cells being transplanted per zebrafish, so as to establish a zebrafish human lung adenocarcinoma transplanted tumor model.
as §1, with “Human lung adenocarcinoma (A549)” for “Human lymphatic cancer (Ramos)”, “human lung adenocarcinoma (A549)” for “human lymphatic cancer”, “the A549” for “the human lymphatic cancer”
as §2, with “inhibitory effect” for “inhibitory effects”, “of the sample” for “of samples”, “zebrafish lung adenocarcinoma (A549)” for “zebrafish gastric cancer (SGC-7901)”, “tumor was” for “tumor were respectively”

| SMILES | Pixel of Sum of Fluorescence Intensities (mean ± SE) ([1]; n = 10) | Pixel of Sum of Fluorescence Intensities (mean ± SE) ([1]; n = 10, listed as vincristine) | inhibition at 5 µM ([1]; Danio rerio, 48 h, n = 10, read-out: Inhibition Effect) | Inhibition Effect [2] | Pixel of Sum of Fluorescence Intensities (mean ± SE) [2] | Pixel of Sum of Fluorescence Intensities (mean ± SE) ([2]; listed as cis-platinum) | Inhibition Effect [3] | Pixel of Sum of Fluorescence Intensities (mean ± SE) [3] | Pixel of Sum of Fluorescence Intensities (mean ± SE) ([3]; listed as cis-platinum) |
| --- | --- | --- | --- | --- | --- | --- | --- | --- | --- |
| CC[C@]1(O)C[C@H]2CN(CCc3c([nH]c4ccccc34)[C@@](C(=O)OC)(c3cc4c(cc3OC)N(C=O)[C@H]3[C@@](O)(C(=O)OC)[C@H](OC(C)=O)[C@]5(CC)C=CCN6CC[C@]43[C@@H]65)C2)C1 [Vincristine, Vincristine sulfate] | 153919 ± 13691 pixels | 153,919 pixels | 33% |  |  |  |  |  |  |
| N.N.[Cl][Pt][Cl] [Cis-platinum] |  |  |  | 36% | 237655 ± 12361 pixels | 237,655 pixels | 32% | 137287 ± 7835 pixels | 137,287 pixels |
